From patent US20200345058A1, “Nicotine Oxalic Acid Formulations” (priority 2017, published 2020)

Details: 0.5% (w/w) nicotine or higher and 0.9% (w/w) tartaric acid or higher, ambient conditions
Text: As used herein, weight percentage (w/w) refers to the weight of the individual component over the weight of the total formulation.

## CN1CCCC1c1cccnc1.O=C(O)C(O)C(O)C(=O)O (stereo not shown) [nicotine bitartrate]
  solubility in propylene glycol (PG), vegetable glycerin (VG) or any mixture (in words): will not produce a solution
